# BindingDB's records for doi:10.1021/jm00028a001 (University of Pennsylvania, 1994)
# Molecular target: T1, Dimer of Gag-Pol polyprotein [489-587] (Human immunodeficiency virus 1, UniProt P12497)
# T1 construct: 489-587
# Assay: Protease Inhibition Assay
# Details: pH 5.5; 30 °C
# Protocol: Sensitivity of HIV-1 protease activity to protease inhibitors was determined by a peptide substrate cleavage assay. Protease products were analyzed on a reverse-phase high-pressure liquid chromatograph.
row,SMILES,IC50 [nM]
1,CC(C)(C)NC(=O)[C@@H]1CCCCN1C[C@@H](O)[C@@H]1Cc2ccc(cc2)OCCCC(=O)N[C@@H](CC(N)=O)C(=O)N1 [Peptidomimetic inhibitor 4],0.6
2,"CCC(C)[C@@H]1NC(=O)[C@@H](NC[C@@H](O)[C@H](Cc2ccc(O)cc2)NC(=O)[C@H](C(C)C)N2CCCC2=O)Cc2ccc(cc2)OCCCNC1=O (stereo partly drawn) [(2S)-N-[(2S,3R)-4-{[(8S,11S)-8-[(2R)-butan-2-yl]-7,10-dioxo-2-oxa-6,9-diazabicyclo[11.2.2]heptadeca-1(15),13,16-trien-11-yl]amino}-3-hydroxy-1-(4-hydroxyphenyl)butan-2-yl]-3-methyl-2-(2-oxopyrrolidin-1-yl)butanamide]",10
3,"CC(C)C[C@@]1(C2C=N[C@@](Cc3ccccc3)(C[C@H](O)[C@H](Cc3ccccc3)NC(=O)O[C@@H]3CCOC3)C2=O)N=CC([C@@H](Cc2ccccc2)C(N)=O)C1=O (stereo partly drawn) [(3R)-oxolan-3-yl N-[(2S,3S)-4-[(2S)-2-benzyl-4-[(2S)-4-[(1R)-1-carbamoyl-2-phenylethyl]-2-(2-methylpropyl)-3-oxo-2,3-dihydro-1H-pyrrol-2-yl]-3-oxo-2,3-dihydro-1H-pyrrol-2-yl]-3-hydroxy-1-phenylbutan-2-yl]carbamate]",1.3
